From patent US10524471B2, “Compositions and methods for increasing salt tolerance in plants” (King Abdullah University of Science and Technology, priority 2016, dated 2020)
“Also recorded” adds a separate entry of the source.

Test system: Arabidopsis seedlings
Test: Arabidopsis salt stress tolerance assay (½ MS + 100 mM NaCl)
Assay type: in vivo, Arabidopsis thaliana

Row | SMILES | SA187-induced tolerance to salt stress in presence of inhibitor (in vivo) | effect on salt stress tolerance compared with SA187 (100 nM ACC, ½ MS + 100 mM NaCl, 12 days after transfer)
1 | O=[N+]([O-])[O-].[Ag+] [AgNO3, silver nitrate] | did not exhibit any SA187-induced tolerance to salt stress | –
2 | NC1(C(=O)O)CC1 [ACC, 1-aminocyclopropane-1-carboxylic acid] | – | could largely mimic the beneficial activity of SA187; also recorded: partially mimics the effect of SA187
